Columns and labels:
KRAS G12C = KRAS G12C (Homo sapiens, UniProt P01116, G12C); test: GDP-GTP exchange assay (KRAS_G12C exchange); format: biochemical; settings: bodipy-GDP loaded KRAS G12C 2.5 nM, SOS1 150 nM, GppNHp; 2 hours pre-incubation, 2 hours reaction; read-out: G12C_exchange
Procedure, shortened: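 Fluorescence exchange of bodipy-GDP for GppNHp, SOS1-driven, read at 485/520 nm; IC50 from four-parameter variable-slope fit. Both mutants used 2.5 nM final labelled protein and a 2 h compound pre-incubation. G12C reaction had 500 uM GppNHp and 150 nM SOS1 for 2 h; G12D ran 4 h.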

[1] = tested on: MIA PaCa-2 (KRAS G12C) cells; test: Cellular pERK HTRF assay (KRAS_G12C pERK); format: cell-based, human; settings: Homo sapiens, MIA PaCa-2, 4 hours incubation, read-out: G12C_pERK
Procedure, shortened: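 Phospho-ERK1/2 HTRF readout (665 and 620 nm) in lysed MIA PaCa-2 cells, antibodies incubated overnight at room temperature. Cells seeded the day before and treated with G12C compounds for 4 h at 37 °C; IC50 fitted to percent inhibition against log inhibitor concentration.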

Sequence of KRAS G12C (P01116 1-188 isoform P01116-2 G12C): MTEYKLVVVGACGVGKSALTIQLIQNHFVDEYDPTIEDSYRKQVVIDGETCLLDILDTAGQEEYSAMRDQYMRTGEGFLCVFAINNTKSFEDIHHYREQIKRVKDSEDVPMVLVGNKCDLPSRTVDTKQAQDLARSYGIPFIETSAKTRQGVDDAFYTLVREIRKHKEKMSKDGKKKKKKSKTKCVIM

SMILES	IC50 (KRAS G12C) [nM]	IC50 [1] [nM]
COC/C=C/C(=O)N1CC[C@H](n2nnc3c(OC[C@@H]4CCCN4C)nc4c(F)c(-c5cccc(C)c5C)c(C)cc4c32)C[C@H]1CC#N [Example 140, 2-((2S,4S)-4-(7-(2,3-dimethylphenyl)-6-fluoro-8-methyl-4-(((S)-1-methylpyrrolidin-2-yl)methoxy)-1H-[1,2,3]triazolo[4,5-c]quinolin-1-yl)-1-((E)-4-methoxybut-2-enoyl)piperidin-2-yl)acetonitrile]	≤ 100	≤ 100
Cc1cccc(-c2c(C)cc3c(nc(OC[C@@H]4CCCN4C)c4nnn([C@H]5CCN(C(=O)/C=C/C(F)F)[C@H](CC#N)C5)c43)c2F)c1C [Example 141, 2-((2S,4S)-1-((E)-4,4-difluorobut-2-enoyl)-4-(7-(2,3-dimethylphenyl)-6-fluoro-8-methyl-4-(((S)-1-methylpyrrolidin-2-yl)methoxy)-1H-[1,2,3]triazolo[4,5-c]quinolin-1-yl)piperidin-2-yl)acetonitrile]	≤ 100	≤ 100
C=CC(=O)N1CC[C@H](n2nnc3c(O[C@@H](C)CN(C)C)nc4c(F)c(-c5cccc(C)c5C)c(C)cc4c32)C[C@H]1CC#N [Example 142, 2-((2S,4S)-1-acryloyl-4-(4-(((S)-1-(dimethylamino)propan-2-yl)oxy)-7-(2,3-dimethylphenyl)-6-fluoro-8-methyl-1H-[1,2,3]triazolo[4,5-c]quinolin-1-yl)piperidin-2-yl)acetonitrile]	≤ 100	≤ 100
Cc1cccc(-c2c(C)cc3c(nc(O[C@@H](C)CN(C)C)c4nnn([C@H]5CCN(C(=O)/C=C/CF)[C@H](CC#N)C5)c43)c2F)c1C [Example 143, 2-((2S,4S)-4-(4-(((S)-1-(dimethylamino)propan-2-yl)oxy)-7-(2,3-dimethylphenyl)-6-fluoro-8-methyl-1H-[1,2,3]triazolo[4,5-c]quinolin-1-yl)-1-((E)-4-fluorobut-2-enoyl)piperidin-2-yl)acetonitrile]	≤ 100	≤ 100
Cc1cccc(-c2c(C)cc3c(nc(O[C@@H](C)CN(C)C)c4nnn([C@H]5CCN(C(=O)/C=C/C(F)F)[C@H](CC#N)C5)c43)c2F)c1C [Example 144, 2-((2S,4S)-1-((E)-4,4-difluorobut-2-enoyl)-4-(4-(((S)-1-(dimethylamino)-propan-2-yl)oxy)-7-(2,3-dimethylphenyl)-6-fluoro-8-methyl-1H-[1,2,3]triazolo[4,5-c]quinolin-1-yl)piperidin-2-yl)acetonitrile]	≤ 100	≤ 100
COC/C=C/C(=O)N1CC[C@H](n2nnc3c(O[C@@H](C)CN(C)C)nc4c(F)c(-c5cccc(C)c5C)c(C)cc4c32)C[C@H]1CC#N [Example 145, 2-((2S,4S)-4-(4-(((S)-1-(dimethylamino)propan-2-yl)oxy)-7-(2,3-dimethylphenyl)-6-fluoro-8-methyl-1H-[1,2,3]triazolo[4,5-c]quinolin-1-yl)-1-((E)-4-methoxybut-2-enoyl)piperidin-2-yl)acetonitrile]	≤ 100	≤ 100
CC#CC(=O)N1CC[C@H](n2nnc3c(O[C@@H](C)CN(C)C)nc4c(F)c(-c5cccc(C)c5C)c(C)cc4c32)C[C@H]1CC#N [Example 146, 2-((2S,4S)-1-(but-2-ynoyl)-4-(4-(((S)-1-(dimethylamino)propan-2-yl)oxy)-7-(2,3-dimethylphenyl)-6-fluoro-8-methyl-1H-[1,2,3]triazolo[4,5-c]quinolin-1-yl)piperidin-2-yl)acetonitrile]	≤ 100	≤ 100
C=CC(=O)N1CC[C@H](n2nnc3c(N4CC(N(C)C)C4)nc4c(F)c(-c5cccc(C)c5C)c(C)cc4c32)C[C@H]1CC#N [Example 147, 2-((2S,4S)-1-acryloyl-4-(4-(3-(dimethylamino)azetidin-1-yl)-7-(2,3-dimethylphenyl)-6-fluoro-8-methyl-1H-[1,2,3]triazolo[4,5-c]quinolin-1-yl)piperidin-2-yl)acetonitrile]	≤ 100	≤ 100
Cc1cccc(-c2c(C)cc3c(nc(N4CC(N(C)C)C4)c4nnn([C@H]5CCN(C(=O)/C=C/C(F)F)[C@H](CC#N)C5)c43)c2F)c1C [Example 148, 2-((2S,4S)-1-((E)-4,4-difluorobut-2-enoyl)-4-(4-(3-(dimethylamino)azetidin-1-yl)-7-(2,3-dimethylphenyl)-6-fluoro-8-methyl-1H-[1,2,3]triazolo[4,5-c]quinolin-1-yl)piperidin-2-yl)acetonitrile]	≤ 100	≤ 100
Cc1cccc(-c2c(Cl)cc3c(nc(N4CC(N(C)C)C4)c4ncn([C@H]5CCN(C(=O)/C=C/CF)[C@H](CC#N)C5)c43)c2F)c1C [Example 149, 2-((2S,4S)-4-(8-chloro-4-(3-(dimethylamino)azetidin-1-yl)-7-(2,3-dimethylphenyl)-6-fluoro-1H-imidazo[4,5-c]quinolin-1-yl)-1-((E)-4-fluorobut-2-enoyl)piperidin-2-yl)acetonitrile]	≤ 100	≤ 100
Cc1nccn1-c1nc2c(F)c(-c3ccccc3)c(Cl)cc2c2c1ncn2[C@H]1CCN(C(=O)/C=C/CN(C)C)[C@H](CC#N)C1 [Example 151, 2-((2S,4S)-4-(8-chloro-6-fluoro-4-(2-methyl-1H-imidazol-1-yl)-7-phenyl-1H-imidazo[4,5-c]quinolin-1-yl)-1-((E)-4-(dimethylamino)but-2-enoyl)piperidin-2-yl)acetonitrile]	≤ 100	≤ 100
Cc1nccn1-c1nc2c(F)c(-c3ccccc3)c(Cl)cc2c2c1ncn2[C@H]1CCN(C(=O)/C=C/CF)[C@H](CC#N)C1 [Example 152, 2-((2S,4S)-4-(8-chloro-6-fluoro-4-(2-methyl-1H-imidazol-1-yl)-7-phenyl-1H-imidazo[4,5-c]quinolin-1-yl)-1-((E)-4-fluorobut-2-enoyl)piperidin-2-yl)acetonitrile]	≤ 100	≤ 100
Cc1nccn1-c1nc2c(F)c(-c3ccccc3)c(Cl)cc2c2c1nnn2[C@H]1CCN(C(=O)/C=C/CN(C)C)[C@H](CC#N)C1 [Example 153, 2-((2S,4S)-4-(8-chloro-6-fluoro-4-(2-methyl-1H-imidazol-1-yl)-7-phenyl-1H-[1,2,3]triazolo[4,5-c]quinolin-1-yl)-1-((E)-4-(dimethylamino)but-2-enoyl)piperidin-2-yl)acetonitrile]	≤ 100	≤ 100
C=CC(=O)N1CC[C@H](n2nnc3c(N4CC(N(C)C)C4)nc4c(F)c(-c5ccccc5)c(Cl)cc4c32)C[C@H]1CC#N [Example 154, 2-((2S,4S)-1-acryloyl-4-(8-chloro-4-(3-(dimethylamino)azetidin-1-yl)-6-fluoro-7-phenyl-1H-[1,2,3]triazolo[4,5-c]quinolin-1-yl)piperidin-2-yl)acetonitrile]	≤ 100	≤ 100
C=CC(=O)N1CC[C@H](n2nnc3c(OC[C@@H]4CCCN4C)nc4c(F)c(-c5ccccc5)c(Cl)cc4c32)C[C@H]1CC#N [Example 155, 2-((2S,4S)-1-acryloyl-4-(8-chloro-6-fluoro-4-(((S)-1-methylpyrrolidin-2-yl)methoxy)-7-phenyl-1H-[1,2,3]triazolo[4,5-c]quinolin-1-yl)piperidin-2-yl)acetonitrile]	≤ 100	≤ 100

From US20210269434A1, “TRICYCLIC COMPOUNDS AS INHIBITORS OF KRAS” (Incyte Corporation, priority 2020, published 2021)
